Data reported in US10054581B1, “Inhibitors of notch signaling pathway and use thereof in treatment of cancers” (Ecole Polytechnique Federale de Lausanne (EPFL), priority 2011, dated 2018).
“Also recorded” adds a separate entry of the source.

Assays:
TALL1 = experiment: Annexin V apoptosis, TALL1; format: cell-based, human; details: 10 μM, 7 days
Description: FIGS. 6A-6D show 6-(4-Tert-Butylphenoxy)Pyridin-3-Amine (I3) induces G0/G1 cell cycle arrest and apoptosis in human T cell acute lymphoblastic leukemia cell lines and human breast cancer cell line HCC1187. […] Percentage of Annexin V positive (apoptotic) cell population was measured using flow cytometry.
To quantitate the percentage of apoptotic cells, AnnexinV and 7AAD staining was performed. Thymic cells were suspended in 300 μl of 1× AnnexinV binding buffer (BD Biosciences, San Diego, USA) and incubated with 10 μl of AnnexinV-Cy5 antibody and 10 μl of 7AAD (BD Biosciences, San Diego, USA). Samples were incubated for 15 minutes at room temperature. FACS was performed with in one hour of antibody staining.
This 6-(4-Tert-Butylphenoxy)Pyridin-3-Amine (I3) mediated proliferative arrest could be due to induction of apoptosis or cell cycle arrest during different phases of cell cycle. […] Therefore to further elucidate the mechanisms responsible for 6-(4-Tert-Butylphenoxy)Pyridin-3-Amine (I3) mediated proliferative arrest cell cycle and apoptosis analyses were carried out. […] To investigate cell death, Annexin V staining was performed and proportion of apoptotic (AnnexinV positive) cell population was determined by flow cytometry analyses after 7 days of treatment.

MZB cells in the spleen = experiment: Marginal Zone B cell development in the spleen (flow cytometry); format: in vivo, mouse; details: 25 mg/kg, 7 consecutive days, analysed day 8
Description: FIGS. 7A-7C show 6-(4-Tert-Butylphenoxy)Pyridin-3-Amine (I3) mimics genetic loss of Notch2 signalling phenotype in the spleen. Loss of Notch signalling in the spleen leads to a reduction in Marginal Zone B cells (MZB) cells in the spleen. […] Spleens were analyzed on day 8. Using B220 specific antibodies, B cells in the spleen were identified. MZB cells within the B cell compartment were detected using antibodies against CD23 and CD21 cell surface markers.
Fluorescence activated cell sorting (FACS) analyses were performed on CyAn™ ADP instrument platform for flow cytometry at Flow cytometry core facility, EPFL. DL4 and Notch1 expression in DL4- and N1-HeLa cells was determined using anti-DL4 and anti-N1 antibodies respectively. T cell development in the thymus was investigated using antibodies against CD4, CD8 and TCRβ. MZB cell development was monitored using antibodies against B220, CD21 and CD23. In brief, a single cell suspension was prepared from thymus and spleen. […]
Applicants hypothesized that 6-(4-Tert-Butylphenoxy)Pyridin-3-Amine (I3) mediated inhibition of Notch2 signalling should lead to a block in MZB cell development in the spleen. MZB cell development was assessed by flow cytometry staining of splenocytes with antibodies directed against B220, CD21 and CD23.

[1] = system: MMTV-ErbB2 mouse mammary tumors; experiment: MMTV-ErbB2 mammary tumor transplantation in FVB mice; format: in vivo; details: 25 mg/kg on alternate days, established tumors; preliminary results
Description: FIGS. 9A-9B show 6-(4-Tert-Butylphenoxy)Pyridin-3-Amine (I3) treatment blocks MMTV-ErbB2 mouse mammary tumors. […] Tubulin served as a loading control. […] Tumor formation was monitored on a regular basis. Once the tumor developed to a volume of 100-300 mm^3′ mice were treated with oil (n=2) or 25 mg/kg of 6-(4-Tert-Butylphenoxy)Pyridin-3-Amine (I3) (n=2). Tumor volume was measured every 6-7 days.
Primary MMTV-ErbB2/Neu mammary tumors were harvested from the mice and a single cell suspension was prepared. 1×10^6 primary tumor cells were suspended in 50 μl of 1×PBS and kept on ice. Three weeks old recipient FVB mice were cleared of their endogenous epithelium and tumor cells were injected into the empty fat pad. Tumor development in the recipient mice was monitored and tumor volumes were measured using digital caliper. Tumor volumes were calculated using following formula: […]length×(width)^2. Once the tumor reached a volume of about 100 mm^3, recipient mice were treated with oil or 25 mg/kg of I3 on alternate days.
In human breast cancer, high levels of Notch1 and Jagged1 proteins correlated with a poor survival of breast cancer patients. In addition, activation of Notch signalling in human breast cancer also facilitates bone and lung metastasis. […] The tumor volume was measured and recorded on regular intervals.

[2] = system: intestinal tissue (goblet cells); experiment: Intestinal toxicity in mice (Alcian blue staining for goblet cells); format: in vivo, mouse

## CC(C)(C)c1ccc(Oc2ccc(N)cn2)cc1 [I3, 6-(4-Tert-Butylphenoxy)Pyridin-3-Amine]
TALL1
  apoptosis (Annexin V positive cells): induces significant apoptosis
MZB cells in the spleen
  absolute numbers of MZB cells in the spleen: loss of MZB cell population in the spleen also reflects in the absolute number of MZB cells; also recorded: causes a reduction the percentage and absolute numbers of MZB cells in the spleen
  percentage of MZB cells in the spleen: leads to a reduction in the percentage of MZB cell population in the spleen; also recorded: causes a significant reduction in the percentage of MZB cells in the spleen; also recorded: causes a reduction the percentage and absolute numbers of MZB cells in the spleen
[1]
  tumor volume / tumor progression: caused significant tumor growth retardation; also recorded: exhibited a slow tumor progression compared to oil treated mice; also recorded: led to a block in tumor progression in the mice
[2]; C57B16 mice, 25 mg/kg i.p., 7 consecutive days, analysed day 8, 25 mg/kg
  intestinal architecture / goblet cell metaplasia: completely normal with intact architecture and no indication of goblet cell metaplasia; also recorded: did not perturb intestinal homeostasis and without any indication of goblet cell accumulation
[2]; NOD/SCID γc−/− mice with RPMI 8402 xenotransplant, treated for 27 days
  goblet cell numbers and intestinal architecture: did not reveal any abnormality in the goblet cell numbers and intestinal architecture
